The values below come from PubChem BioAssay (NCI).

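In this assay, cells in 96-well plates receive the compound at five concentrations for 48 hours. Endpoints are linearly interpolated between the surrounding concentrations. TGI is the concentration that stops growth completely.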 Some results are limits rather than exact numbers.

Test systems include SNB-19 CNS; MOLT-4 leukemia; HCT-15 colon; HCC-2998 colon; UACC-62 melanoma; SNB-75 CNS; HL-60(TB) leukemia; COLO 205 colon; SF-539 CNS; DU-145 prostate; MDA-MB-231 breast; IGROV1 ovarian; NCI-H460 lung.
What all share (test): DTP human tumour cell line panel, 48 h

Turning to `CCCC1=NC(C(F)(F)F)(C(F)(F)F)N=C(N2CCOCC2)O1`, the TGI in the experiment on SNB-19 CNS, in the experiment with MOLT-4 leukemia, in the experiment on HCT-15 colon, in the experiment on HCC-2998 colon, with UACC-62 melanoma and in the experiment with SNB-75 CNS was more than 100 µM each time. For the same compound, the total growth inhibition concentration (TGI) with HL-60(TB) leukemia, in the experiment with COLO 205 colon, with SF-539 CNS, with DU-145 prostate, in the experiment on MDA-MB-231 breast and in the experiment with IGROV1 ovarian was more than 100 µM each time.
With `CC(C)CC(NC=O)C(=O)NC(Cc1ccccc1)NC(=O)CNC(=O)C(C)NC(=O)OC(C)(C)C` (stereo unspecified), the TGI in the experiment on SNB-19 CNS, in the experiment on MOLT-4 leukemia, with HCT-15 colon, in the experiment on UACC-62 melanoma, with SNB-75 CNS and in the experiment with NCI-H460 lung was more than 100 µM throughout. Moreover, the TGI in the experiment with HL-60(TB) leukemia, in the experiment on COLO 205 colon, in the experiment on SF-539 CNS, in the experiment with DU-145 prostate, in the experiment on MDA-MB-231 breast and in the experiment on IGROV1 ovarian was more than 100 µM in each case.
In the case of `S=C1NCCN1C(=S)NC1CCCCC1`, the TGI in the experiment on MOLT-4 leukemia was more than 100 µM; in the experiment with HCT-15 colon it was 89.7 µM; in the experiment with HCC-2998 colon, 42.3 µM; in the experiment with UACC-62 melanoma, 96.5 µM; in the experiment with SNB-75 CNS, 72.1 µM; in the experiment on NCI-H460 lung it was 48 µM. Further, the total growth inhibition concentration (TGI) in the experiment on HL-60(TB) leukemia is 96.7 µM; in the experiment on COLO 205 colon it was 59.2 µM; with SF-539 CNS, 70.7 µM; with DU-145 prostate, more than 100 µM; in the experiment on MDA-MB-231 breast, more than 100 µM; in the experiment on IGROV1 ovarian it was more than 100 µM.
With `O=C(Nc1ccc(Cl)cc1Cl)c1cc2nc3ccccc3c(=O)n2c2ccccc12`, the total growth inhibition concentration (TGI) in the experiment with SNB-19 CNS, with HCT-15 colon, in the experiment with HCC-2998 colon, in the experiment with UACC-62 melanoma, in the experiment with NCI-H460 lung and with HL-60(TB) leukemia was more than 10 µM each time. Also, the TGI in the experiment with SF-539 CNS, with DU-145 prostate, in the experiment with MDA-MB-231 breast and in the experiment on IGROV1 ovarian was more than 10 µM throughout.
On to `CC12OC3(C(O)C1O)C(C(=O)O[C@H]3CO[Si](C)(C)C(C)(C)C)C2S(=O)(=O)c1ccccc1` (stereo partly specified), for which the total growth inhibition concentration (TGI) in the experiment on SNB-19 CNS is more than 100 µM; in the experiment with MOLT-4 leukemia it was 55.7 µM; in the experiment on HCT-15 colon it was 89.6 µM; with UACC-62 melanoma, 36 µM; in the experiment on SNB-75 CNS it was 90.4 µM; in the experiment with NCI-H460 lung, more than 100 µM. Further, the TGI with HL-60(TB) leukemia was 67.9 µM; in the experiment with SF-539 CNS it was more than 100 µM; in the experiment with DU-145 prostate it was more than 100 µM; with MDA-MB-231 breast it was more than 100 µM; in the experiment on IGROV1 ovarian, 97.4 µM.
For `CN1C(=O)CN=C(c2ccccc2F)c2cc(N=C=S)ccc21`, the TGI in the experiment with SNB-19 CNS, in the experiment on HCT-15 colon, in the experiment on HCC-2998 colon, in the experiment with UACC-62 melanoma, in the experiment on SNB-75 CNS and with NCI-H460 lung was more than 100 µM in each case. The concentration for total growth inhibition (TGI) with HL-60(TB) leukemia, in the experiment with DU-145 prostate, in the experiment on MDA-MB-231 breast and with IGROV1 ovarian was more than 100 µM throughout.
For the compound `O=C1NC(=O)/C(=C/c2ccc(S(=O)(=O)N/N=C/c3ccccc3)cc2)N1`, the TGI with SNB-19 CNS, in the experiment with MOLT-4 leukemia, in the experiment with HCT-15 colon, in the experiment with HCC-2998 colon, in the experiment with UACC-62 melanoma and in the experiment on SNB-75 CNS was more than 100 µM in each case. The total growth inhibition concentration (TGI) in the experiment with HL-60(TB) leukemia, in the experiment on COLO 205 colon, in the experiment on DU-145 prostate, with MDA-MB-231 breast and in the experiment with IGROV1 ovarian was more than 100 µM in each case.
`Nc1nc(Cl)cc(NCC2(CO)CC(c3ccccc3)C2)n1` (stereo unspecified): the TGI in the experiment with SNB-19 CNS was more than 100 µM; with MOLT-4 leukemia it was 93.9 µM; in the experiment on HCT-15 colon it was more than 100 µM; in the experiment with UACC-62 melanoma, more than 100 µM; with SNB-75 CNS, more than 100 µM; in the experiment on NCI-H460 lung, more than 100 µM. The TGI is 56.9 µM in the experiment on HL-60(TB) leukemia; more than 100 µM with COLO 205 colon; more than 100 µM in the experiment on SF-539 CNS; more than 100 µM in the experiment with DU-145 prostate; more than 100 µM with MDA-MB-231 breast; more than 100 µM with IGROV1 ovarian.
As for `CC(C)[Si](Oc1cc2c3c(ccc2c(O)c1[C@@H](C)CO[Si](C)(C)C(C)(C)C)C(C)(C)CCC3)(C(C)C)C(C)C`, the TGI in the experiment on SNB-19 CNS, in the experiment with MOLT-4 leukemia, with HCT-15 colon, in the experiment on UACC-62 melanoma, with SNB-75 CNS and in the experiment on NCI-H460 lung was more than 100 µM in each case. The TGI in the experiment with HL-60(TB) leukemia is 43.4 µM; in the experiment on COLO 205 colon, more than 100 µM; in the experiment with SF-539 CNS, more than 100 µM; with DU-145 prostate, more than 100 µM; in the experiment with MDA-MB-231 breast, more than 100 µM; with IGROV1 ovarian, more than 100 µM.
In the case of `Cc1ccccc1C(=O)NC(O)(C(F)(F)F)C(F)(F)F`, the total growth inhibition concentration (TGI) with SNB-19 CNS was more than 100 µM; with MOLT-4 leukemia, more than 100 µM; in the experiment on HCT-15 colon, more than 100 µM; in the experiment with HCC-2998 colon, more than 100 µM; in the experiment on SNB-75 CNS, 3.17 µM; in the experiment on NCI-H460 lung, more than 100 µM. Also, the TGI in the experiment on HL-60(TB) leukemia, in the experiment with COLO 205 colon, in the experiment on SF-539 CNS, in the experiment on DU-145 prostate, in the experiment on MDA-MB-231 breast and with IGROV1 ovarian was more than 100 µM each time.
Turning to `COc1ccc(/C=N/NS(=O)(=O)c2ccc(/C=C3\NC(=O)N(C)C3=O)cc2)cc1`, the TGI with SNB-19 CNS, in the experiment on MOLT-4 leukemia, with HCT-15 colon, in the experiment with HCC-2998 colon, with UACC-62 melanoma and in the experiment with SNB-75 CNS was more than 100 µM in each case. Further, the TGI in the experiment on NCI-H460 lung, in the experiment on HL-60(TB) leukemia, in the experiment on COLO 205 colon, in the experiment with DU-145 prostate, in the experiment on MDA-MB-231 breast and with IGROV1 ovarian was more than 100 µM in each case.
Regarding `CSC1=N/C(=C\c2ccccc2)C(=O)N1CN1CCOCC1`, the TGI in the experiment on SNB-19 CNS, with MOLT-4 leukemia, in the experiment on HCT-15 colon, in the experiment on UACC-62 melanoma, in the experiment on SNB-75 CNS and in the experiment on HL-60(TB) leukemia was more than 100 µM each time. The TGI in the experiment with COLO 205 colon, with DU-145 prostate, in the experiment on MDA-MB-231 breast and in the experiment with IGROV1 ovarian was more than 100 µM each time.

A word on the TGI: it is the concentration giving total growth inhibition. A lower TGI goes with greater sensitivity of the cells.
